Our source for the IC50 values is patent publication US20260055079A1, “PHTHALAZINONE COMPOUNDS AS PARP7 INHIBITORS” (AZKARRA THERAPEUTICS, INC., priority 2022, published 2026).

The target in this assay is His-GST-PARP7 (Homo sapiens (Human), UniProt Q7Z3E1). The assay can be described thus: PARP7 biochemical assay. The following applies: read-out: PARP7 IC50.
His-GST-PARP7, sequence (Q7Z3E1 whole entry): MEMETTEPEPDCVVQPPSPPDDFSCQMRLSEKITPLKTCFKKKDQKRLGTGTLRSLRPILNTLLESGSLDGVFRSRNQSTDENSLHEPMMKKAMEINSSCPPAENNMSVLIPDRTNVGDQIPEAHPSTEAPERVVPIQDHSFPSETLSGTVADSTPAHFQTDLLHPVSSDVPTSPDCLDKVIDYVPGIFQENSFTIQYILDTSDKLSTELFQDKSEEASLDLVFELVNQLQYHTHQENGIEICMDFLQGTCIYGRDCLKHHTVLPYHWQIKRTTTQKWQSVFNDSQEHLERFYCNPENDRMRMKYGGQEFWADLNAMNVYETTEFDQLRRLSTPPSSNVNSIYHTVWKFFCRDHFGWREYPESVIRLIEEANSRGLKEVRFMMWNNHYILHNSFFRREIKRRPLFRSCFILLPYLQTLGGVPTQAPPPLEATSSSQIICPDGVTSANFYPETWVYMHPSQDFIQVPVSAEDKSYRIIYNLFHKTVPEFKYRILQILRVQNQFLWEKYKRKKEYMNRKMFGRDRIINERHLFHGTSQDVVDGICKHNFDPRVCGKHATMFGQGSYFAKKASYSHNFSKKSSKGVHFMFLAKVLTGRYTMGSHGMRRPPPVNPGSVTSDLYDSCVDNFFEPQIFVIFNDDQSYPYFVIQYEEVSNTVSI

For the compound “4-(4-Fluoro-3-(4-(5-(trifluoromethyl)pyrimidin-2-yl)piperazine-1-carbonyl)benzyl)-6-(3,3,3-trifluoroprop-1-yn-1-yl)phthalazin-1(2H)-one [Example 42]”, the IC50 fell in the range of 0.5 to 2 µM.
Consider “6-(3-(5-((7-Cyclobutoxy-4-oxo-3,4-dihydrophthalazin-1-yl)methyl)-2-fluorobenzoyl)-3,8-diazabicyclo[3.2.1]octan-8-yl)nicotinonitrile [Example 99]”, for which the half-inhibitory concentration (IC50) was less than 0.05 µM.
The value for `O=C(c1cc(Cc2n[nH]c(=O)c3ccc(OC4CCC4)cc23)ccc1F)N1C[C@@H]2CC[C@H]1CN2C(=O)C1CC1` (stereo in doubt) [Example 142, 6-Cyclobutoxy-4-(3-(5-(cyclopropanecarbonyl)-2,5-diazabicyclo[2.2.2]octane-2-carbonyl)-4-fluorobenzyl)phthalazin-1(2H)-one] was 0.1 to 0.5 µM.
As for `N#Cc1ccc(N2C[C@H]3C[C@@H]2CN3C(=O)c2cccc(Cc3n[nH]c(=O)c4ccc(-c5cccnc5)cc34)c2)nc1` (stereo in doubt) [Example 184, 6-(5-(3-((4-Oxo-7-(pyridin-3-yl)-3,4-dihydrophthalazin-1-yl)methyl)benzoyl)-2,5-diazabicyclo[2.2.1]heptan-2-yl)nicotinonitrile], the 50% inhibitory concentration (IC50) lay in the range of 0.1 to 0.5 µM.
On to `C/C(=C\C(F)(F)F)c1ccc2c(=O)[nH]nc(Cc3ccc(F)c(C(=O)N4CCN(c5ccc(C#N)cn5)CC4)c3)c2c1` [Example 32, (E)-6-(4-(2-fluoro-5-((4-oxo-7-(4,4,4-trifluorobut-2-en-2-yl)-3,4-dihydrophthalazin-1-yl)methyl)benzoyl)piperazin-1-yl)nicotinonitrile], for which the half-maximal inhibitory concentration (IC50) is less than 0.05 µM.
The value for `N#Cc1ccc(N2CCN(C(=O)c3cc(Cc4n[nH]c(=O)c5ccc(N6CC7(C6)CC(F)(F)C7)cc45)ccc3F)CC2)nc1` [Example 35, 6-(4-(5-((7-(6,6-Difluoro-2-azaspiro[3.3]heptan-2-yl)-4-oxo-3,4-dihydrophthalazin-1-yl)methyl)-2-fluorobenzoyl)piperazin-1-yl)nicotinonitrile] was 0.05 to 0.1 µM; that for `N#Cc1ccc(N2CCN(C(=O)c3cc(Cc4n[nH]c(=O)c5ccc(Oc6ccccn6)cc45)ccc3F)CC2)nc1` [Example 38, 6-(4-(2-Fluoro-5-((4-oxo-7-(pyridin-2-yloxy)-3,4-dihydrophthalazin-1-yl)methyl)benzoyl)piperazin-1-yl)nicotinonitrile] was less than 0.05 µM.
The result for `N#Cc1ccc(N2CCN(C(=O)c3cc(Cc4n[nH]c(=O)c5ccc(Oc6ccc7ccccc7c6)cc45)ccc3F)CC2)nc1` [Example 39, 6-(4-(2-Fluoro-5-((7-(naphthalen-2-yloxy)-4-oxo-3,4-dihydrophthalazin-1-yl)methyl)benzoyl)piperazin-1-yl)nicotinonitrile] reads 0.05 to 0.1 µM.
The value for `CC#Cc1ccc2c(=O)[nH]nc(Cc3ccc(F)c(C(=O)N4CCN(c5ncc(C(F)(F)F)cn5)CC4)c3)c2c1` [Example 48, 4-(4-Fluoro-3-(4-(5-(trifluoromethyl)pyrimidin-2-yl)piperazine-1-carbonyl)benzyl)-6-(prop-1-yn-1-yl)phthalazin-1(2H)-one] was 0.1 to 0.5 µM; that for `N#Cc1ccc(N2CCN(C(=O)c3cc(Cc4n[nH]c(=O)c5ccc(S(=O)(=O)C6CC(F)(F)C6)cc45)ccc3F)CC2)nc1` [Example 54, 6-(4-(5-((7-((3,3-Difluorocyclobutyl)sulfonyl)-4-oxo-3,4-dihydrophthalazin-1-yl)methyl)-2-fluorobenzoyl)piperazin-1-yl)nicotinonitrile] was 0.5 to 2 µM; that for `CC#Cc1ccc2c(=O)[nH]nc(Cc3ccc(F)c(C(=O)N4CCN(c5cncc(C#N)n5)CC4)c3)c2c1` [Example 55, 6-(4-(2-Fluoro-5-((4-oxo-7-(prop-1-ynyl)-3,4-dihydrophthalazin-1-yl)methyl)benzoyl)piperazin-1-yl)pyrazine-2-carbonitrile] was 0.1 to 0.5 µM.
In the case of `CC#Cc1ccc2c(=O)[nH]nc(Cc3ccc(F)c(C(=O)N4CCN(C(=O)CCC(F)(F)F)CC4)c3)c2c1` [Example 57, 4-(4-Fluoro-3-(4-(4,4,4-trifluorobutanoyl)piperazine-1-carbonyl)benzyl)-6-(prop-1-ynyl)phthalazin-1(2H)-one], the half-inhibitory concentration (IC50) is less than 0.05 µM.
On to `CC#Cc1ccc2c(=O)[nH]nc(Cc3ccc(F)c(C(=O)N4CCn5c(nnc5-c5ccccc5CC)C4)c3)c2c1` [Example 59, 4-(3-(3-(2-Ethylphenyl)-5,6,7,8-tetrahydro-[1,2,4]triazolo[4,3-a]pyrazine-7-carbonyl)-4-fluorobenzyl)-6-(prop-1-ynyl)phthalazin-1(2H)-one], for which the IC50 was 0.1 to 0.5 µM.
Turning to `CC#Cc1ccc2c(=O)[nH]nc(Cc3ccc(F)c(C(=O)N4CC5CCC(C4)N5c4ccc(C#N)cn4)c3)c2c1` [Example 64, 6-(3-(2-Fluoro-5-((4-oxo-7-(prop-1-ynyl)-3,4-dihydrophthalazin-1-yl)methyl)benzoyl)-3,8-diazabicyclo[3.2.1]octan-8-yl)nicotinonitrile], the half-inhibitory concentration (IC50) is less than 0.05 µM.
As for `CC#Cc1ccc2c(=O)[nH]nc(Cc3ccc(F)c(C(=O)N4C[C@@H]5C[C@H]4CN5c4ccc(C#N)cn4)c3)c2c1` [Example 68, 6-((1S,4S)-5-(2-fluoro-5-((4-oxo-7-(prop-1-ynyl)-3,4-dihydrophthalazin-1-yl)methyl)benzoyl)-2,5-diazabicyclo[2.2.1]heptan-2-yl)nicotinonitrile], the half-inhibitory concentration (IC50) lay in the range of 0.5 to 2 µM.
In the case of `[2H]C([2H])(c1ccc(F)c(C(=O)N2CCN(c3ccc(C#N)cn3)CC2)c1)c1n[nH]c(=O)c2ccc(C#CC)cc12` [Example 73, 6-(4-(2-Fluoro-5-((4-oxo-7-(prop-1-yn-1-yl)-3,4-dihydrophthalazin-1-yl)methyl-d2)benzoyl)piperazin-1-yl)nicotinonitrile], the IC50 was less than 0.05 µM.
The result for `CC#Cc1ccc2c(=O)[nH]nc(Cc3ccc4c(c3)C(=O)N(CCN(CC)c3ccc(C#N)cn3)C4)c2c1` [Example 75, 6-(Ethyl(2-(1-oxo-6-((4-oxo-7-(prop-1-ynyl)-3,4-dihydrophthalazin-1-yl)methyl)isoindolin-2-yl)ethyl)amino)nicotinonitrile] reads more than 2 µM; that for `CC#Cc1ccc2c(=O)[nH]nc(Cc3ccc(F)c(C#N)c3)c2c1` [Example 76, 2-Fluoro-5-((4-oxo-7-(prop-1-yn-1-yl)-3,4-dihydrophthalazin-1-yl)methyl)benzonitrile], more than 2 µM; that for `CC#Cc1ccc2c(=O)[nH]nc(Cc3cc(C(=O)N4CCN(c5ccc(C#N)cn5)CC4)c(F)cc3F)c2c1` [Example 77, 6-(4-(2,4-Difluoro-5-((4-oxo-7-(prop-1-yn-1-yl)-3,4-dihydrophthalazin-1-yl)methyl)benzoyl)piperazin-1-yl)nicotinonitrile], less than 0.05 µM.
Take `CC#Cc1ccc2c(=O)[nH]nc(Cc3ccc(F)c(C(NCCN(CC)c4ccc(C#N)cn4)C(F)(F)F)c3)c2c1` (stereo not shown) [Example 78, 6-(Ethyl(2-((2,2,2-trifluoro-1-(2-fluoro-5-((4-oxo-7-(prop-1-yn-1-yl)-3,4-dihydrophthalazin-1-yl)methyl)phenyl)ethyl)amino)ethyl)amino)nicotinonitrile]: the half-inhibitory concentration (IC50) was more than 2 µM.
The value for `CC#Cc1ccc2c(=O)[nH]nc(Cc3ccc(F)c(C(=O)N4CCN(c5ncc(C)n5C)CC4)c3)c2c1` [Example 79, 4-(3-(4-(1,5-Dimethyl-1H-imidazol-2-yl)piperazine-1-carbonyl)-4-fluorobenzyl)-6-(prop-1-ynyl)phthalazin-1(2H)-one] was 0.1 to 0.5 µM; that for `COc1c(Oc2ccccc2)ccc2c(=O)[nH]nc(Cc3ccc(F)c(C(=O)N4CCN(c5ccc(C#N)cn5)CC4)c3)c12` [Example 89, 6-(4-(2-Fluoro-5-((8-methoxy-4-oxo-7-phenoxy-3,4-dihydrophthalazin-1-yl)methyl)benzoyl)piperazin-1-yl)nicotinonitrile] was 0.05 to 0.1 µM.
Consider `Cc1cccc(Oc2ccc3c(=O)[nH]nc(Cc4ccc(F)c(C(=O)N5CCN(c6ccc(C#N)cn6)CC5)c4)c3c2)c1` [Example 90, 6-(4-(2-fluoro-5-((4-oxo-7-(m-tolyloxy)-3,4-dihydrophthalazin-1-yl)methyl)benzoyl)piperazin-1-yl)nicotinonitrile], for which the 50% inhibitory concentration (IC50) was less than 0.05 µM.
As for `N#Cc1ccnc(N2CCN(C(=O)c3cc(Cc4n[nH]c(=O)c5ccc(OC6CCC6)cc45)ccc3F)CC2)c1` [Example 95, 2-(4-(5-((7-Cyclobutoxy-4-oxo-3,4-dihydrophthalazin-1-yl)methyl)-2-fluorobenzoyl)piperazin-1-yl)isonicotinonitrile], the IC50 was less than 0.05 µM.
The value for `N#Cc1ccc(N2C[C@H]3CC[C@@H](C2)N3C(=O)c2cc(Cc3n[nH]c(=O)c4ccc(OC5CCC5)cc34)ccc2F)nc1` [Example 96, 6-(8-(5-((7-Cyclobutoxy-4-oxo-3,4-dihydrophthalazin-1-yl)methyl)-2-fluorobenzoyl)-3,8-diazabicyclo[3.2.1]octan-3-yl)nicotinonitrile] was less than 0.05 µM; that for `O=C(c1cc(Cc2n[nH]c(=O)c3ccc(OC4CCC4)cc23)ccc1F)N1[C@@H]2CC[C@H]1CN(c1ncc(C(F)(F)F)cn1)C2` [Example 97, 6-cyclobutoxy-4-(4-fluoro-3-(3-(5-(trifluoromethyl)pyrimidin-2-yl)-3,8-diazabicyclo[3.2.1]octane-8-carbonyl)benzyl)phthalazin-1(2H)-one] was less than 0.05 µM; that for `O=C(c1cc(Cc2n[nH]c(=O)c3ccc(OC4CCC4)cc23)ccc1F)N1C[C@H]2CC[C@@H](C1)N2c1ncc(C(F)(F)F)cn1` [Example 100, 6-Cyclobutoxy-4-(4-fluoro-3-(8-(5-(trifluoromethyl)pyrimidin-2-yl)-3,8-diazabicyclo[3.2.1]octane-3-carbonyl)benzyl)phthalazin-1(2H)-one] was less than 0.05 µM.
The value for `O=C(c1cc(Cc2n[nH]c(=O)c3ccc(OC4CCC4)cc23)ccc1F)N1CC(Nc2ncc(C(F)(F)F)cn2)C1` [Example 102, 6-Cyclobutoxy-4-(4-fluoro-3-(3-((5-(trifluoromethyl)pyrimidin-2-yl)amino)azetidine-1-carbonyl)benzyl)phthalazin-1(2H)-one] was 0.05 to 0.1 µM.
